These results are taken from patent publication US9334271B2, “Purine derivatives and their use in the treatment of disease” (Novarits AG, priority 2012, dated 2016).

Like-named read-outs stand apart in the source and are kept apart here.

One assay addresses recombinant human mTOR (Homo sapiens (Human), UniProt P42345). Briefly: Test 1: mTOR ATP-binding assay based on TR-FRET. The conditions noted are these: GST-tagged truncated human mTOR, tracer-314, TR-FRET. How it is done: Test 1: mTOR ATP-Binding Assay Based on TR-FRET for Recombinant Human mTOR
2. The final volume of the assay is 10 μL and the order of addition is as follows:
50 nL of compounds dilution;
Incubated for 60 minutes at room temperature.
TR-FRET measured in Biotek Synergy2 reader at: • Excitation 340 nm/emission 665 nm • Excitation 340 nm/emission 620 nm
The following final concentrations are used:
1 nM Europium anti-GST antibody;
The following controls are used:
3. IC50 determinations may be performed as follows:
The Emission ratio is converted to percentage of inhibition for each compound concentration. IC50 values are calculated by fitting a sigmoidal dose-response curve to a plot of assay readout over compound concentration. All fits and analysis are performed with the program XLfit4 (ID Business Solutions, Guildford, UK).
For orientation: Time-resolved FRET reads energy transfer from a long-lived donor to a nearby acceptor.

The test system of assay [1] is cellular mTOR kinase activity (phosphorylation of Thr 389 of S6K1) in TSC1-/- MEFs. Briefly: Test 2: Cellular mTOR assay (P-P70S6K T389 Surefire). It is filed as cell-based. The conditions noted are these: Mus musculus. The procedure: Test 2: Cellular mTOR Assay
30 μl are added per well to a 384 well-plate using a Multidrop instrument (Thermo scientific), resulting in 4000 cells/well. The plates are incubated at 37° C./5% CO2 for 20 hours (to allow for settling and adherance to the surface).
Eight 3-fold serial dilutions of test-compounds (beginning at 1.8 mM) are prepared in 90% DMSO and compiled on 384 well master plates (Greiner). A pan-pPI3K/mTOR inhibitor (0.8 mM of 8-(6-methoxy-pyridin-3-yl)-3-methyl-1-(4-piperazin-1-yl-3-trifluoromethyl-phenyl)-1,3-dihydro-imidazo[4,5-c]quinolin-2-one in 90% DMSO) is added to the wells for the low control. 90% DMSO is added to the wells for the high controls. Compounds are provided as 250 nl shots (Hummingbird) in 384 well-polypropylene microplates (compound plates). 50 μl of growth medium is added to the compound plates (dilution 1:200) with the Multidrop. After shaking (1 min at 2000 rpm), 10 μl of the first dilution is then transferred to the cell plate with a Matrix Plate Mate 2×3 pipettor (final dilution 1:4). After 1 hour of treatment, medium is removed from the plate and 20 μl of Surefire lysis buffer is added per well with the Multidrop.
Cell lysates are frozen for 15 minutes, thawed with shaking and transferred to the experimental 384 well-Proxiplate (5 μl/well) for the P-P70S6K (T389) Surefire assay (Perkin Elmer #TGR70S50). The first mix is composed of the reaction buffer (containing the specific antibody), the activation buffer and the acceptor beads (40 vol, 10 vol and 1 vol respectively). 5 μl per well is added to the lysates with a Zephyr® SPE Workstation (Caliper Life Sciences) and incubated for 2 hours with shaking at room temperature. After this incubation time, the second mix of dilution buffer and donor beads (20 vol and 1 vol respectively) is added to the plate with the same instrument (2 μl/well). After 2 hours, the plate can be read with an EnVision® Multilabel Reader (Perkin Elmer). Since the beads are light sensitive, their transfer and incubation is executed in a dark room (greenlight).
The raw data is used to generate dose response curves for test compounds and IC50 values calculated therefrom.

In another assay the test system is H4 mCherry-GFP-LC3 cells. Briefly: Test 3: Autophagy assay (mCherry-GFP-LC3 reporter, high-content imaging). It is filed as cell-based, human. The conditions noted are these: 16-18 h treatment, mCherry-positive LC3 puncta/cell. The source says: Autophagy is a catabolic pathway that degrades bulk cytosol in lysosomal compartments enabling amino acids and fatty acids to be recycled. One of the key regulators of autophagy is the mammalian target of rapamycin (mTOR), a conserved serine/threonine kinase which suppresses the initiation of the autophagic process when nutrients, growth factors and energy are available. To quantify autophagy induction by mTOR inhibitors, we use a mCherry-GFP-LC3 reporter which is amenable to retroviral delivery into mammalian cells, stable expression and analysis by fluorescence microscopy.
The amino acid sequence of the mCherry-GFP-LC3 construct is shown below (SEQ ID NO: 1). The mCherry sequence is underlined, GFP sequence is in bold and LC3A sequence is boxed.
Described hereinafter is an imaging protocol and image recognition algorithm to visualize and measure changes in the autophagic pathway.
Quantification of Autophagy Using High-Content Imaging and Analysis
• 1. Day 0: Cell plating. Subconfluent H4 mCherry-GFP-LC3 cells are harvested by trypsinization, resuspended in growth medium, and counted (H4 cells: Human neuroglioma cell line (ATCC)). A cell suspension of 66′000 cells/mL is prepared and 30 μL are added into the wells of a 384-well plate using an electronic multichannel pipette. […] The cell plates are briefly spun down and placed at 37° C. and 5% CO2. • 2. Day 1: Compound treatment. Compound dose responses are prepared in DMSO. The dose responses are then diluted 1:50 in medium. 10 ul of the diluted compound is added to 30 ul of cells, yielding a final 1:200 dilution of the original compound and final of 0.5% DMSO. Compound-treatments are performed in triplicates. The 384-well plates are placed at 37° C. and 5% CO2. Compound treatment is performed for 16-18 h (see Note 1). • 3. Day 2: Cell fixation. Cells are fixed by adding 10 μL/well 5× concentrated Mirsky's fixative supplemented with 25 μg/mL Hoechst33342. […] The 384-well plate is briefly spun down and incubated for 1 h at room temperature. Cells are then washed using a 384-well plate washer using a protocol which aspirates the volume down to 10 μL/well before dispensing 100 μL/well 1×TBS. Aspiration and dispensing steps are repeated 4 times and a final volume of 100 μL/well is left. The plate is sealed using an adhesive PCR foil. • 4. Imaging. The bottom of the plate is cleaned with 70% ethanol and then imaged using the InCell 1000 automated epifluorescence microscope. 20× magnification is used and 4 different areas (fields) are imaged per well, this typically captures a total of around 400 cells per well. Hoechst33342 images are acquired using an excitation of 360 nm (D360_40x filter), an emission of 460 nm (HQ460_40M filter) and an exposure time of 150 ms. GFP images are acquired using an excitation of 475 nm (S475_20x filter), an emission of 535 nm (HQ535_50M filter) and an exposure time of 1 s. mCherry images are acquired using an excitation of 535 nm (HQ535_50x filter), an emission of 620 nm (HQ620_60M filter) and an exposure time of 1 s. A quadruple band pass mirror is used for all images. • 5. Image analysis. The InCell Analysis software is used to analyze the images using the Multi Target Analysis algorithm. First, nuclei are detected in the Hoechst33342 image using top-hat segmentation and a minimal nuclear area of 50 μm^2. Cells are defined using a collar of 10 μm around the nuclei. Second, puncta (organelles) are identified in the mCherry image inside the cells using multi-top-hat segmentation. Third, the mask of the mCherry puncta is transferred onto the GFP image. Fourth, the GFP fluorescence intensity inside the mCherry puncta mask is measured (reference intensity). • 6. The ‘organelles’ parameter reflects mCherry-positive puncta of the mCherry-GFP-LC3 reporter and is used to calculate ‘LC3 puncta/cell’. […]

The mark [2] stands for this setting: TSC1-/- MEFs, 1 hour treatment, P-P70S6K (T389), read-out: Test 2: T389 cellular assay IC50.
Setting [3] is: 1 h, read-out: Test 2: T389 cellular assay IC50 (nM).

Chain of recombinant human mTOR (P42345 1360-2549): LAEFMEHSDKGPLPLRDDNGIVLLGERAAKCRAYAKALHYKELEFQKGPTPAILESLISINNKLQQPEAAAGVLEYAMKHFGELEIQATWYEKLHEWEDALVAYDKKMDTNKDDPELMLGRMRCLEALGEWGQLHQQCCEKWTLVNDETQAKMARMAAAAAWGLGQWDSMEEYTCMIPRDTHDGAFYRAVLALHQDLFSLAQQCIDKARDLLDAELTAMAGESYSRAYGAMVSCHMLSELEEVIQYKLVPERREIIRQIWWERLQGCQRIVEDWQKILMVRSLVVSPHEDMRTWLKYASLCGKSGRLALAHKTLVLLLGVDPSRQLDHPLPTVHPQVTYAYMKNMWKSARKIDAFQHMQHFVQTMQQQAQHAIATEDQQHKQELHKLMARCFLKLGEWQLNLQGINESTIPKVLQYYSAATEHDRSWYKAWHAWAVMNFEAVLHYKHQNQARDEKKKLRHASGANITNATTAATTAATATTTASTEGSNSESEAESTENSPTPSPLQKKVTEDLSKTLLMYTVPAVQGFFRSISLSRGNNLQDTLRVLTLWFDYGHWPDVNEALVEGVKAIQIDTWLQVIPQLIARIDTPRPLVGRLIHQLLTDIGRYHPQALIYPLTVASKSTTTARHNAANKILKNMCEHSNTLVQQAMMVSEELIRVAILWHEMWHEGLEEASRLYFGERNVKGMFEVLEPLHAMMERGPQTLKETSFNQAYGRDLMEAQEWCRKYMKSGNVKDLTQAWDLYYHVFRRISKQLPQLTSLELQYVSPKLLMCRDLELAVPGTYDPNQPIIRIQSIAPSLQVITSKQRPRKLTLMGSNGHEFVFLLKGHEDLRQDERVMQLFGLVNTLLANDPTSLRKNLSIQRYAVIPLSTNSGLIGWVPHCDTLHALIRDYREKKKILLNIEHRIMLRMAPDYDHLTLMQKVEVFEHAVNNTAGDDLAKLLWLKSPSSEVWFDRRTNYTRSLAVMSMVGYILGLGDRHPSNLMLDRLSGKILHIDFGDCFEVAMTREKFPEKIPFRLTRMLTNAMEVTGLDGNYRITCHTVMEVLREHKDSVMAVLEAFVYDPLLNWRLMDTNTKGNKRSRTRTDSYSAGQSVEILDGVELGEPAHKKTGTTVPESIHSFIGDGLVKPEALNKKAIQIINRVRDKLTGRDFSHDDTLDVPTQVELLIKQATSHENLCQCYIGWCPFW

By IC50 is commonly meant the concentration needed to halve the response being measured. Usually EC50 stands for the concentration giving half of the maximal effect. A higher EC50 goes with a less potent agent. Regarding `C[C@@H]1COCCN1c1nc(N2CCOC[C@H]2C)c2nc(-c3ccccn3)[nH]c2n1` [Example 1, 2,6-Bis-((R)-3-methyl-morpholin-4-yl)-8-pyridin-2-yl-9H-purine], the values for the IC50 (at recombinant human mTOR; in assay [1] (setting [2])) were 139 nM and 1010 nM, respectively. This compound came in with an EC50 in the assay on H4 mCherry-GFP-LC3 cells (Homo sapiens) of 351 nM.
For `C[C@@H]1COCCN1c1nc(N2CCOC[C@@H]2C)nc2[nH]c(-c3cc[nH]n3)nc12` [Example 2, 2-((S)-3-Methyl-morpholin-4-yl)-6-((R)-3-methyl-morpholin-4-yl)-8-(1H-pyrazol-3-yl)-9H-purine], in that order: 104 nM, 131 nM and 1050 nM.
Take `C[C@@H]1COCCN1c1nc(N2CCCOCC2)nc2[nH]c(-c3cccc4[nH]ccc34)nc12` [Example 3, 8-(1H-Indol-4-yl)-6-((R)-3-methyl-morpholin-4-yl)-2-[1,4]oxazepan-4-yl-9H-purine]: the IC50 was found to be 164 nM at recombinant human mTOR and 76 nM in assay [1] (setting [3]). The same compound registered an EC50 in the assay with H4 mCherry-GFP-LC3 cells (Homo sapiens) of 422 nM.
For `C[C@@H]1COCCN1c1nc(N2CCOC[C@H]2C)c2nc(-c3ccc(-c4ncc[nH]4)cc3)[nH]c2n1` [Example 4, 8-[4-(1H-Imidazol-2-yl)-phenyl]-2,6-bis-((R)-3-methyl-morpholin-4-yl)-9H-purine], the IC50 amounted to 2120 nM at recombinant human mTOR and 1550 nM in assay [1] (setting [2]). In the assay on H4 mCherry-GFP-LC3 cells (Homo sapiens), this compound yielded an EC50 of 2160 nM.
For the compound `C[C@@H]1COCCN1c1nc(N2CCOC[C@@H]2C)nc2[nH]c(-c3cc(F)cc4[nH]ccc34)nc12` [Example 5, 8-(6-Fluoro-1H-indol-4-yl)-2-((S)-3-methyl-morpholin-4-yl)-6-((R)-3-methyl-morpholin-4-yl)-9H-purine], the IC50 on recombinant human mTOR was found to be 21 nM; in assay [1] (setting [2]), 122 nM.
For the compound `C[C@@H]1COCCN1c1nc(N2CCOC[C@H]2C)c2nc(-c3cc(CO)cc4[nH]ccc34)[nH]c2n1` [Example 6, {4-[2,6-Bis-((R)-3-methyl-morpholin-4-yl)-9H-purin-8-yl]-1H-indol-6-yl}-methanol], the IC50 turned out to be 66 nM on recombinant human mTOR and 1180 nM in assay [1] (setting [3]). The compound also registered an EC50 in the assay with H4 mCherry-GFP-LC3 cells (Homo sapiens) of 423 nM.
As to `c1ccc(-c2nc3c(N4CCOCC4)nc(N4CCOCC4)nc3[nH]2)nc1` [Example 9, 2,6-Di-morpholin-4-yl-8-pyridin-2-yl-9H-purine], on recombinant human mTOR, the IC50 is 860 nM.
As for `C[C@@H]1COCCN1c1nc(N2C3CCC2CC(O)C3)nc2[nH]c(-c3cccc4[nH]ccc34)nc12` (stereo partly drawn) [Example 13, 8-[8-(1H-Indol-4-yl)-6-((R)-3-methyl-morpholin-4-yl)-9H-purin-2-yl]-8-aza-bicyclo[3.2.1]octan-3-ol], the concentration for a half-maximal effect (EC50) in the assay with H4 mCherry-GFP-LC3 cells (Homo sapiens) is 935 nM.
In the case of `C[C@@H]1COCCN1c1nc(N2C3CCC2CC(O)C3)nc2[nH]c(-c3cccc4[nH]ccc34)nc12` (stereo partly drawn) [Example 14, 8-[8-(1H-Indol-4-yl)-6-((R)-3-methyl-morpholin-4-yl)-9H-purin-2-yl]-8-aza-bicyclo[3.2.1]octan-3-ol], the EC50 with H4 mCherry-GFP-LC3 cells is 855 nM.
On to `C[C@@H]1COCCN1c1nc(N2CC3(CCCOC3)C2)nc2[nH]c(-c3cccc4[nH]ccc34)nc12` [Example 17, 8-(1H-Indol-4-yl)-6-((R)-3-methyl-morpholin-4-yl)-2-(6-oxa-2-aza-spiro[3.5]non-2-yl)-9H-purine], for which a half-maximal response in the assay on H4 mCherry-GFP-LC3 cells (Homo sapiens) (EC50) required 663 nM.
In the case of `C[C@@H]1COCCN1c1nc(N2CC3COCC3C2)nc2[nH]c(-c3cccc4[nH]ccc34)nc12` (stereo partly drawn) [Example 19, 8-(1H-Indol-4-yl)-6-((R)-3-methyl-morpholin-4-yl)-2-(tetrahydro-furo[3,4-c]pyrrol-5-yl)-9H-purine], in assay [1] (setting [3]), the IC50 stood at 471 nM. This compound also came in with an EC50 in the assay on H4 mCherry-GFP-LC3 cells (Homo sapiens) of 727 nM.
Consider `C[C@@H]1COCCN1c1nc(N2CCC3COCC3C2)nc2[nH]c(-c3cccc4[nH]ccc34)nc12` (stereo partly drawn) [Example 20, 2-(Hexahydro-furo[3,4-c]pyridin-5-yl)-8-(1H-indol-4-yl)-6-((R)-3-methyl-morpholin-4-yl)-9H-purine], for which the “Test 3: Autophagy EC50 (nM)” value with H4 mCherry-GFP-LC3 cells is listed as “n.m”.
For the compound `CC(C)[C@@H]1COCCN1c1nc(N2CCOC[C@H]2C)c2nc(-c3cccc4[nH]ccc34)[nH]c2n1` [Example 21, 8-(1H-Indol-4-yl)-2-((R)-3-isopropyl-morpholin-4-yl)-6-((R)-3-methyl-morpholin-4-yl)-9H-purine], the IC50 at recombinant human mTOR amounted to 122 nM; in assay [1] (setting [3]), 179 nM.
In turn, `C[C@@H]1COCCN1c1nc(N2CCC23CCOCC3)nc2[nH]c(-c3cccc4[nH]ccc34)nc12` [Example 24, 8-(1H-Indol-4-yl)-6-((R)-3-methyl-morpholin-4-yl)-2-(7-oxa-1-aza-spiro[3.5]non-1-yl)-9H-purine] showed an EC50 in the assay with H4 mCherry-GFP-LC3 cells (Homo sapiens) of 302 nM.
For the compound `C[C@@H]1COCCN1c1nc(N2CCO[C@H](CO)C2)nc2[nH]c(-c3cccc4[nH]ccc34)nc12` [Example 25, {(S)-4-[8-(1H-Indol-4-yl)-6-((R)-3-methyl-morpholin-4-yl)-9H-purin-2-yl]-morpholin-2-yl}-methanol], the IC50 at recombinant human mTOR was determined as 380 nM; in assay [1] (setting [3]), 1930 nM.
For `C[C@@H]1COCCN1c1nc(N2CCO[C@@H](CO)C2)nc2[nH]c(-c3cccc4[nH]ccc34)nc12` [Example 26, {(R)-4-[8-(1H-Indol-4-yl)-6-((R)-3-methyl-morpholin-4-yl)-9H-purin-2-yl]-morpholin-2-yl}-methanol], in that order: 67 nM and 318 nM.
